Assay results as given in BindingDB's records for patent US20250197375 (Kineta, 2025).

Target: T1, 1-phosphatidylinositol 3-phosphate 5-kinase [S696N,L932S,Q995L,T998S,S1033A,Q1183K] (Homo sapiens, UniProt Q9Y2I7, L932S/Q1183K/Q995L/S1033A/S696N/T998S)
T1 construct: gene PIKFYVE
Assay: PIKfyve Inhibitory Activity Assay
Description: PIKfyve Biochemical Assay. The biochemical PIKFyve inhibition assays were run by Cama Biosciences according to proprietary methodology based on the Promega ADP-Glo™ Kinase assay. […] GST-PIKFYVE was purified by using glutathione sepharose chromatography and used in an ADP-Glo™ Kinase assay (Promega). Reactions were set up by adding the test compound solution, substrate solution, ATP solution and kinase solution, each at 4× final concentrations. Reactions were prepared with assay buffer (50 mM MOPS, 1 mM DTT, pH7.2), mixed, and incubated in black 384 well polystyrene plates for 1 hour at room temperature. ADP-Glo™ reagent was then added for 40 minutes, followed by kinase detection reagent for an additional 40 minutes. The kinase activity was evaluated by detecting relative light units on a luminescence plate reader. Samples were run in duplicate from 10 μM to 3 nM. […] IC50 values were calculated from concentration versus percent inhibition curves by fitting to a four-parameter logistic curve.

T1 sequence (Q9Y2I7 2-2098 S696N/L932S/Q995L/T998S/S1033A/Q1183K limits assumed): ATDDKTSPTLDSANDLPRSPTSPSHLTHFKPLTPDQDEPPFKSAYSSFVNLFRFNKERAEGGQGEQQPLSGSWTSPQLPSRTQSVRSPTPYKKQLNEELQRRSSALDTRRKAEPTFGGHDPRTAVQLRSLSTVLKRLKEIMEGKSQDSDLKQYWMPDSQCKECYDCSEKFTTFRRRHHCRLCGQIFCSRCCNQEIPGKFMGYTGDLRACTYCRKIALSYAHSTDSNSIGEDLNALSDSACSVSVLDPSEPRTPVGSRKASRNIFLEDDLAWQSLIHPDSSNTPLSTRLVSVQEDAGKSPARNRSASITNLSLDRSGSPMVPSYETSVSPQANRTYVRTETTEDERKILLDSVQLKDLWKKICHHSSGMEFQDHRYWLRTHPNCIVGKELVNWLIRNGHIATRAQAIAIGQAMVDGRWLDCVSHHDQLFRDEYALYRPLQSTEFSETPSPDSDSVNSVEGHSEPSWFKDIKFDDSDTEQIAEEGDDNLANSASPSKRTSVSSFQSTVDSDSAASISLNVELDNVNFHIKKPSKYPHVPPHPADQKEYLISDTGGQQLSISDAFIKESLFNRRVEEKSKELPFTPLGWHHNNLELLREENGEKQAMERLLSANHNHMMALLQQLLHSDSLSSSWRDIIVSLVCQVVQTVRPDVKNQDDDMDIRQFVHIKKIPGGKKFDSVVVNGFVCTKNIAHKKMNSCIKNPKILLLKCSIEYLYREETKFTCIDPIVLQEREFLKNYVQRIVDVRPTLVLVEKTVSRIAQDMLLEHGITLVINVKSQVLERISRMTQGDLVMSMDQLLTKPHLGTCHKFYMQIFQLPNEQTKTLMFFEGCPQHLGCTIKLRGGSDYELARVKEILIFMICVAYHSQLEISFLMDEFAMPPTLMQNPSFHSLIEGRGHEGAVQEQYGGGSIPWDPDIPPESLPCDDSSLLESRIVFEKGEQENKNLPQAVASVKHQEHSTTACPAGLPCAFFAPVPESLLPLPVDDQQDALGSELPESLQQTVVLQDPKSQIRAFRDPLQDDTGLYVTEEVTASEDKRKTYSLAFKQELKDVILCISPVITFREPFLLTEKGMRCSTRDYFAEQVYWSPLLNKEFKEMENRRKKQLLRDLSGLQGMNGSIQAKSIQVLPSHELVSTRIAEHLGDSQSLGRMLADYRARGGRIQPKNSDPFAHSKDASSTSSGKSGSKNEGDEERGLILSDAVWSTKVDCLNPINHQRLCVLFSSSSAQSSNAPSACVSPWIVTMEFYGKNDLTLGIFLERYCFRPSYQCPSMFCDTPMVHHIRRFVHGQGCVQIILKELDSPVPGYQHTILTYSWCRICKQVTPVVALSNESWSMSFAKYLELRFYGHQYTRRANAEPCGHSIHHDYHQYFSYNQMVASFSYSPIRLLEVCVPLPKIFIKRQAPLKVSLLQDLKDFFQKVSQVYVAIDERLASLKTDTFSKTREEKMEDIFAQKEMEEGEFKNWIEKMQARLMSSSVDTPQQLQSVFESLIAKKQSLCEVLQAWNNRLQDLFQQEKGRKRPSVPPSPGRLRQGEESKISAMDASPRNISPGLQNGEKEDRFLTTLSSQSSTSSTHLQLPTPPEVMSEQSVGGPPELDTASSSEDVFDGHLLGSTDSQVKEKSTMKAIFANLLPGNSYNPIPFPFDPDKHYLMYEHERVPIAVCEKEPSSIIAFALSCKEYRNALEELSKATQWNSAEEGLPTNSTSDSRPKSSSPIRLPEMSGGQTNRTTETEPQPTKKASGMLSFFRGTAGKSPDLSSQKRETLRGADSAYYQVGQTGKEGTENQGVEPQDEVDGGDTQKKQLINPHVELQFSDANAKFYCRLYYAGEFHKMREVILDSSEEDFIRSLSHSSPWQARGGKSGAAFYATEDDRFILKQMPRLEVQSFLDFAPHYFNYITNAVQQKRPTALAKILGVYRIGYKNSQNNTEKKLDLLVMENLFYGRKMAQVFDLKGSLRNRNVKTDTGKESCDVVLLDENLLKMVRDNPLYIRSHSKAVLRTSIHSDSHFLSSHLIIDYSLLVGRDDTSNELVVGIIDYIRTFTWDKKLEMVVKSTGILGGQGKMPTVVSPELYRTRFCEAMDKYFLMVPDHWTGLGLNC

CN(C)C(=O)c1c(Nc2ccncc2)nc(N2CCOCC2)nc1-c1cccc(-c2ccn(C)n2)c1 [US20250197375, Compound 66]
IC50: < 10 nM
